Measurements from publication PMC11249646, “Small-Molecule Disruptors of the Interaction between Calcium- and Integrin-Binding Protein 1 and Integrin αIIbβ3 as Novel Antiplatelet Agents” (ACS Pharmacology & Translational Science, 2024).
Like-named read-outs stand apart in the source and are kept apart here.

What was measured:
[1] = target: T1, GST-CIB1 : F-scrambled peptide (Homo sapiens, UniProt Q99828); assay: FP scrambled-peptide counter screen, 1536-well format; format: binding; conditions: for IC50: read-out: IC50 [μM] (counterscreen)
T1 construct: made in house; host or cells: BL-21 plus RIL cells (E. coli)
T1 sequence (Q99828 1-191): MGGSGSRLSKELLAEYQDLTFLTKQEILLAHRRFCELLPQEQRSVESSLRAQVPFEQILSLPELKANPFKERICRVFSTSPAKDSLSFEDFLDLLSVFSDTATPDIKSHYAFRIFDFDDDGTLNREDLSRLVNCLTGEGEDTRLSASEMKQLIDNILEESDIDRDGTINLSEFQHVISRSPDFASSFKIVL

[2] = target: T2, CIB1 and αIIb interaction (CIB1-GST : F-αIIb peptide) (Homo sapiens, UniProt Q99828); assay: FP assay, 1536-well qHTS format (primary and confirmatory screen); format: binding
T2 construct: made in house; host or cells: BL-21 plus RIL cells (E. coli)
T2 sequence (Q99828 1-191): T1 sequence (Q99828 1-191)

[3] = Table S3, counterscreen, qHTS curve class, a negative sign marks inhibitory curves
[4] = Table S3, counterscreen, negative = inhibition
[5] = Table S3, confirmatory screen, qHTS curve class, a negative sign marks inhibitory curves
[6] = Table S3, confirmatory screen, negative = inhibition
[7] = qHTS primary screen hits, Table S2, negative = inhibition
[8] = qHTS primary screen hits, Table S2, negative sign = inhibitory curve
[9] = qHTS primary screen hits, Table S2, read-out: IC50
[10] = qHTS primary screen hits, Table S2, negative sign = inhibitory curve, several classes where COUNT > 1
[11] = counterscreen, qHTS curve class, negative sign = inhibitory curve
[12] = confirmatory screen, qHTS curve class, negative sign = inhibitory curve
[13] = confirmatory screen, read-out: IC50 [μM] (confirmatory screen)
[14] = qHTS FP screen hits, Table S2, negative = inhibition
[15] = qHTS FP screen hits, Table S2, read-out: IC50
[16] = Table S3, confirmatory screen, YES/NO call
[17] = Table S3, confirmatory screen, read-out: IC50 [μM] (confirmatory screen)

SMILES | Efficacy (%) (counterscreen) [1, 4] | IC50 ([1]; Table S3, counterscreen) [µM] | Curve Class (confirmatory screen) [2, 5] | Efficacy (%) (confirmatory screen) [2, 6] | Efficacy (%) [2, 7] [%] | IC50 [2, 9] [µM] | Curve Class [2, 10] | Efficacy (%) (counterscreen) ([1]; counterscreen) | Curve Class (counterscreen) [1, 11] | Efficacy (%) (confirmatory screen) ([2]; confirmatory screen) | Confirm? (confirmatory screen) ([2]; confirmatory screen, YES/NO) | Curve Class (confirmatory screen) [2, 12] | IC50 [2, 13] [µM] | also measured
NC(=O)c1cccc(-c2cnc3c(O)ccc(C(=O)O)c3c2)c1.O=C(O)C(F)(F)F [NCGC00241055-01] | -42 | 35.5 | 4 | -31 | -35 | 31.6 |  |  |  |  |  |  |  | Confirm? (counterscreen) ([1]; Table S3, counterscreen, YES/NO call): YES; Curve Class (counterscreen) [1, 3]: -2.4; Curve Class [2, 8]: -2.4
O=C1OC(c2ccc(O)c(S(=O)(=O)[O-])c2)(c2ccc(O)c(S(=O)(=O)[O-])c2)c2c(Br)c(Br)c(Br)c(Br)c21.[Na+].[Na+] [NCGC00159391-03] | 31 | 50.1 | 4 | -20 | -32 | 15.8 | -1.4 |  |  |  |  |  |  | 
C=C(CC)C(=O)c1ccc(OCC(=O)O)c(Cl)c1Cl [NCGC00016260-13] |  |  |  |  |  |  |  | 0 | 4 | -56 | YES | -2.4 | 44.7 | Confirm? (counterscreen) ([1]; counterscreen, YES/NO): YES; Efficacy (%) [2, 14]: -28%; Curve Class ([2]; qHTS FP screen hits, Table S2, one class per curve where COUNT > 1, negative sign = inhibitory curve): -1.2; IC50 [2, 15]: 1.3 µM
O=C1C[C@@](c2ccc(N3CCOCC3)cc2)(c2ccsc2)NC(=O)C1Sc1ccccc1Cl (stereo partly shown) [NCGC00420796-01] |  |  |  |  |  |  |  | -34 | -1.4 | -47 | YES | -2.2 | 20 | IC50 ([1]; counterscreen): 6.3 µM
O=C(O)C(F)(F)F.O=C1CCCC2=C1C1(CCCOC1)N=C(Nc1nc3ccccc3o1)N2 (stereo not shown) [NCGC00188575-01] |  |  |  |  | -34 | 28.2 | -2.2 |  |  |  |  |  |  | COUNTERSCREEN Efficacy (%) ([1]; counterscreen): -21%; COUNTERSCREEN Curve Class ([1]; counterscreen, qHTS curve class): 4; CONFIRMATORY SCREEN Efficacy (%) ([2]; confirmatory screen): -18%; CONFIRMATORY SCREEN Curve Class ([2]; confirmatory screen, qHTS curve class): 4
CC(C)C(=O)OCc1ccc(-c2nn(Cc3ccccc3)c3ccccc23)o1 [NCGC00479272-01] |  |  |  |  |  |  |  | -22 | 4 | -30 | YES | -2.4 | 35.5 | Confirm? (counterscreen) ([1]; counterscreen, YES/NO): YES; Efficacy (%) [2, 14]: -25%; IC50 [2, 15]: 25.1 µM
CCc1ccc(NC(=O)C(=O)NNC(=O)c2cccs2)cc1.O=C(O)C(F)(F)F [NCGC00244112-01] | 71 | 89.1 | 4 | 0 | -22 | 3.2 |  |  |  |  |  |  |  | Curve Class [2, 8]: -1.4
CC(=O)Nc1sc2c(c1-c1nc3ccccc3o1)CCN(C(C)C)C2.O=C(O)C(F)(F)F [NCGC00184832-01] | -55 | 50.1 | -1.2 | -47 | -78 | 50.1 | -2.2 |  |  |  |  |  |  | Curve Class (counterscreen) [1, 3]: -2.2; Confirm? (confirmatory screen) [2, 16]: YES; IC50 [2, 17]: 39.8 µM
CC(O)C(=O)O.CCOc1ccc2nc3cc(N)ccc3c(N)c2c1.O [NCGC00096056-02] | -204 | 31.6 | -2.1 | -162 | -129 | 44.7 | -2.1 |  |  |  |  |  |  | Curve Class (counterscreen) [1, 3]: -2.1; Confirm? (confirmatory screen) [2, 16]: YES; IC50 [2, 17]: 25.1 µM
CCOC(=O)c1[nH]c2c(c1C)C(=S)CC(c1ccco1)C2.O=C(O)C(F)(F)F (stereo not shown) [NCGC00238571-01] |  |  |  |  | -69 | 50.1 | -2.2 | -30 | -1.4 | -73 | YES | -1.2 | 35.5 | IC50 ([1]; counterscreen): 7.1 µM
Cl.Nc1cc(C(F)(F)F)ccc1S [NCGC00262926-01] |  |  |  |  | -84 | 28.2 | -1.1 | -35 | -1.4 | -117 | YES | -1.1 | 22.4 | Confirm? (counterscreen) ([1]; counterscreen, YES/NO): YES; IC50 ([1]; counterscreen): 12.6 µM
